{"source": "patent US6833383B2", "about": "“Methods for treating patients suffering from drug dependencies which lead to plasma melatonin deficiencies” (Neurim Pharmaceuticals (1991) Ltd., priority 1995, dated 2004)", "key": {"[1]": {"tested_on": "melatonin receptors", "experiment": "2-125I-melatonin binding to crude synaptosomal pellets of brains of rats treated for 21 days", "type": "in vivo, rat", "details": "21 days treatment", "procedure": "(§1) 20 male rats, maintained on a daily 14 hour light/10 hour darkness schedule, were divided into 4 groups, each consisting of 5 members:\n(§2) Group 1 (the control group): rats were injected daily with 200 μl saline intraperitoneally for 21 days and were allowed to drink tap water.\n(§3) They also were provided with regular tap water.\n(§4) Group 3 (the melatonin group): rats were injected daily with 200 μl saline intraperitoneally. Their only available drinking water contained 0.4% by weight melatonin.\n(§5) Each group was allowed food and water ad libitum. After 21 days the treatment was stopped. The animals were decapitated between 6:00 and 7:00 p.m. the next day, their brains were rapidly removed and crude synaptosomal pellets were prepared, and melatonin receptors were assessed using 2-^125I-melatonin, as described by Laudon, M., and N. Zisapel, FEBS Lett. 197:9 (1986). Benzodiazepine receptors were assessed by measuring the binding of radioactive benzodiazepine receptor probes ^3H-flunitrazepam (^3H-FNZ) and ^3H-RO 15-1788 as described by Amiri, Z. et al. Brain Res. 553:155 (1991). Binding parameters were calculated from the equilibrium binding data. […] Binding parameters of the various groups were compared by analysis of variance followed by Student-Newman-Keul's test for multiple comparison. Differences were considered significant if P<0.05."}, "[2]": {"tested_on": "Benzodiazepine receptors", "experiment": "3H-flunitrazepam and 3H-RO 15-1788 binding to crude synaptosomal pellets of brains of rats treated for 21 days", "type": "in vivo, rat", "procedure": "as §1, §2, §3, §4, §5"}, "[3]": {"experiment": "urinary 6-sulfatoxymelatonin in benzodiazepine-dependent patient after melatonin therapy", "type": "in vivo, human", "details": "for Urinary 6-sulfatoxymelatonin after treatment: 2 weeks after stopping 1 mg controlled release melatonin daily", "procedure": "(§6) The quality of sleep was assessed by an actigraph tracing which automatically monitors the bedtime sleep-wake pattern through a small device attached to the hand. […] Urine was collected every three hours for 36 hours and assayed for the diurnal secretion of […] melatonin.\n(§7) Oral administration of a controlled release melatonin formulation in the form of tablets containing 1 mg melatonin (Neurim Pharmaceuticals, Israel) (made in accordance with the procedures set forth in example 1 for tablet SR-A) was initiated in order to correct for the deficiency and distortion of the melatonin rhythm. One tablet was administered daily at 8:30 p.m. The patient was asked to gradually reduce the number of benzodiazepine tablets taken each night.\n(§8) The treatment was stopped and 2 weeks afterwards the patient's urine was collected again every three hours over a 36 hour period and assayed for 6-sulfatoxymelatonin. […] A three month follow-up confirmed that the patient maintained their quality of sleep and hardly suffered from headaches. After 6 months without treatment the patient's sleep quality began to deteriorate and melatonin therapy was resumed. The therapy restored their sleep quality and the patient continues to take 3 mg melatonin daily."}, "[4]": {"experiment": "case study: withdrawal from benzodiazepine tolerance and sleep in a patient", "type": "in vivo, human", "text": "This example illustrates the action of melatonin in facilitating rapid withdrawal from benzodiazepine tolerance. A person, married with two children, had been suffering from sleep onset insomnia for 10 years, accompanied by frequent and severe migraine attacks. A thorough neurological assessment was negative. Psychiatric or other organic problems also were ruled out.\nThe patient had been treated with benzodiazepines, tricyclic antidepressants and neuroleptic drugs, as well as biofeedback and relaxation methods with no apparent relief throughout the 10 year period. For the last year, they had been taking 4-8 mg Lorazepam every night, taking a 0.5 mg tablet every half hour or hour throughout the night. This led to difficulties when the patient arose in the morning; they would feel heavily sedated and had problems functioning at work, especially when under pressure. They began to feel that they were losing their memory and ability to concentrate.\nas §6, §7, §8"}, "[5]": {"experiment": "long term melatonin in two insomnia patients dependent upon flunitrazepam", "type": "in vivo, human", "procedure": "Two volunteers, […], a person, and […], a person, had each suffered for a number of years from insomnia and/or frequent awakenings during the night accompanied by difficulty in falling asleep again. […] Both patients had been taking 1-2 mg of flunitrazepam orally prior to retiring each evening.\nEach patient was weaned off of the flunitrazepam via gradual reduction and simultaneous administration of melatonin over a two month period. During this time, each patient received 2 mg melatonin in controlled release form daily. Since the end of that two month period, each patient has been taking 2 mg oral controlled release melatonin for almost two years.\n[…] Each patient also reported reduced fatigue during the daytime within several days after the beginning of the weaning period."}, "[6]": {"details": "cerebral cortex, 21 days treatment"}, "[7]": {"details": "1 mg controlled release melatonin tablet daily"}, "[8]": {"details": "2 mg controlled release melatonin daily, patients"}}, "data": [{"smiles": "COc1ccc2[nH]cc(CCNC(C)=O)c2c1", "note": "[melatonin]", "values": [{"measurement": "binding of melatonin compared with the control group", "setting": "[1]", "value": "no difference"}, {"measurement": "reduction in specific binding of tritiated RO 15-1788 compared with the control group", "setting": "[2]; [6]", "value": 20, "unit": "%"}, {"measurement": "reduction in specific binding of tritiated flunitrazepam compared with the control group", "setting": "[2]; [6]", "value": 20, "unit": "%"}, {"measurement": "maximal binding (Bmax) of the RO-15-1788 binding sites", "setting": "[2]; medulla-pons, 21 days treatment", "value": "significantly increased"}, {"measurement": "urinary 6-sulfatoxymelatonin, change after therapy", "setting": "[3]; 2 weeks after treatment was stopped, urine every three hours over 36 hours", "value": "increase in amount and a clear nocturnal peak"}, {"measurement": "Urinary 6-sulfatoxymelatonin after treatment", "setting": "[3]; time 3.00", "value": 0.74, "unit": "µg/h"}, {"measurement": "Urinary 6-sulfatoxymelatonin after treatment", "setting": "[3]; time 6.00", "value": 0.36, "unit": "µg/h"}, {"measurement": "Urinary 6-sulfatoxymelatonin after treatment", "setting": "[3]; time 9.00", "value": 0.21, "unit": "µg/h"}, {"measurement": "Urinary 6-sulfatoxymelatonin after treatment", "setting": "[3]; time 12.00", "value": 0.01, "unit": "µg/h"}, {"measurement": "Urinary 6-sulfatoxymelatonin after treatment", "setting": "[3]; time 15.00 (first)", "value": 0.11, "unit": "µg/h"}, {"measurement": "Urinary 6-sulfatoxymelatonin after treatment", "setting": "[3]; time 15.00 (second)", "value": 0.04, "unit": "µg/h"}, {"measurement": "Urinary 6-sulfatoxymelatonin after treatment", "setting": "[3]; time 18.00", "value": 0.45, "unit": "µg/h"}, {"measurement": "Urinary 6-sulfatoxymelatonin after treatment", "setting": "[3]; time 21.00", "value": 0.11, "unit": "µg/h"}, {"measurement": "Urinary 6-sulfatoxymelatonin after treatment", "setting": "[3]; time 24.00", "value": 1.24, "unit": "µg/h"}, {"measurement": "headaches (patient's report)", "setting": "[4]; [7]", "value": "subsided gradually"}, {"measurement": "insomnia (patient's claim)", "setting": "[4]; [7]", "value": "improved remarkably"}, {"measurement": "time until the patient stopped using the benzodiazepine hypnotics altogether", "setting": "[4]; 1 mg controlled release melatonin tablet daily at 8:30 p.m., patient on 4-8 mg Lorazepam nightly", "value": "≤ 2", "unit": "days"}, {"measurement": "sleep pattern, repeated actigraph tracing", "setting": "[4]; after 3 weeks of melatonin treatment", "value": "marked improvement"}, {"measurement": "sleep quality after melatonin therapy was resumed", "setting": "[4]; resumed after 6 months without treatment", "value": "restored"}, {"measurement": "sleep inducement (subjective report)", "setting": "[5]; [8]", "value": "good"}, {"measurement": "sleep quality (subjective report)", "setting": "[5]; [8]", "value": "substantial improvement"}, {"measurement": "residual tiredness in the morning or hangover feeling", "setting": "[5]; 2 mg oral controlled release melatonin", "value": "has not caused any"}, {"measurement": "side effects reported", "setting": "[5]; 2 mg oral controlled release melatonin for almost two years", "value": "No side effects"}, {"measurement": "fatigue during the daytime", "setting": "[5]; within several days after the beginning of the weaning period", "value": "reduced"}]}, {"smiles": "CN1C(=O)CN=C(c2ccccc2)c2cc(Cl)ccc21", "note": "[diazepam]", "values": [{"measurement": "effect on RO 15-1788 and flunitrazepam binding sites", "setting": "[2]; [6]", "value": "did not significantly affect"}, {"measurement": "effect on the melatonin-mediated decrease in specific binding", "setting": "[2]; cerebral cortex, diazepam given together with melatonin", "value": "prevented"}]}]}
